Values quoted from earlier work, collected in patent US20070099846A1, “Composition containing dipeptide of histidine and alanine for reducing uric acid and method for reducing uric acid using the dipeptide” (LYTONE ENTERPRISE, INC., priority 2003, published 2007).

Test system: peptidase and proteases excreted from pancreas or other digestive organs

Compound: NCCC(=O)N[C@@H](Cc1cnc[nH]1)C(=O)O [carnosine, β-alanyl-L-histidine]
- Resistance against digestion by peptidase and proteases: resist against digestion
